The values below come from BindingDB's records for doi:10.1016/0960-894X(96)00376-9 (1996).

This test in a line: Binding affinity against human Alpha-1b adrenergic receptor.
`O=C(c1nc(-c2c[nH]c3cc(Br)ccc23)c[nH]1)c1c[nH]c2cc(O)ccc12` [topsentin B2] returned a Ki of 0.74 µM. The molecule `O=C(c1nc(-c2c[nH]c3ccccc23)c[nH]1)c1c[nH]c2cc(O)ccc12` returned a Ki of 1.15 µM. For `Brc1ccc2c(-c3nc(-c4c[nH]c5ccccc45)c[nH]3)c[nH]c2c1` [Nortopsentin B], the Ki worked out at 0.13 µM. This Ki lies about 8.8-fold lower than the previous one. On to `Brc1ccc2c(-c3c[nH]c(-c4c[nH]c5cc(Br)ccc45)n3)c[nH]c2c1` [Nortopsentin A], for which affinity was put at a Ki of 0.52 µM. Compared with the last molecule, the Ki is about 4-fold higher. `Brc1ccc2c(-c3c[nH]c(-c4c[nH]c5ccccc45)n3)c[nH]c2c1` [Nortopsentin C] displayed a Ki of 0.17 µM.

By Ki is commonly meant a measure of affinity in units of concentration, obtained from inhibition or displacement.
